US10501801B2, “Identification of tumor-protective epitopes for the treatment of cancers” (THE UNIVERSITY OF CONNECTICUT, priority 2012, dated 2019)
Read-outs that look alike come from different tables or passages of the source. Ends that are not written are not given here.

Target: H-2 K^d (Mus musculus, UniProt P01902)
Experiment: Binding of peptides to purified H-2 K^d (inhibition of radiolabeled standard peptide)
Description: Binding assays. Binding of peptides to H-2 K^d was determined using quantitative assays based on the inhibition of binding of a radiolabeled standard peptide to purified MHC molecules, essentially as known in the art. […] Under the conditions utilized, where [label]<[MHC] and IC50≥[MHC], the measured IC50 values are reasonable approximations of the KD values.

[1] = wild type counterpart peptide, Table 5, read-out: Measured IC50 for K^d Mut/WT: WT
[2] = wild type counterpart peptide, Table 4, read-out: Measured IC50 for K^d Mut/WT: WT
[3] = mutated peptide, Table 5, read-out: Measured IC50 for K^d Mut/WT: Mut

Compound | IC50 [1] [µM] | IC50 [µM] | further results
LYVSKLNGP [Galnt1, L(y/D)VSKLNGP] |  | > 70 | 
PALKSEEKTL [Stau1.3] |  | > 70 | 
VYLTCRLEKPA [Gapdh] |  | > 70 | 
AYCETCWE(l/W) (AYCETCWEL; not fully specified; printed as AYCETCWE(l/W); cysteine pairing not given here; listed as Mus musculus) [Apc] |  |  | IC50 [2]: 0.06 µM
AYILAALTKLQ [Trim26.2] |  | > 70 | 
CYAKVKEQL [Ssx2ip, CYAK(v/L)KEQL] |  |  | IC50 [2]: 0.0032 µM
YYVPLLKRVP(l/S) (YYVPLLKRVPL; not fully specified; printed as YYVPLLKRVP(l/S); listed as Mus musculus) [Alms1.2] |  |  | IC50 [2]: 1.49 µM
GFHGCIHEVL [Slit3] |  | > 70 | 
LYHTRPTAL [Kdm4b, L(y/D)HTRPTAL] |  | > 70 | 
PYKRLKAEPA [Prrc2a] |  | 0.261 | 
SYCEPALNQA [Ncdn] |  | > 70 | 
AYILAALTKL [Trim26.1] |  | 0.0011 | 
DYVPMEQP [Alkbh6.1, D(y/D)VPMEQP] | > 70 |  | 
GYSVLHLAI [Nfkb1, G(y/D)SVLHLAI] |  | 1.61 | 
HYLQGSNA [Fiz1, H(y/D)LQGSNA] |  | > 70 | 
D(y/D)VPMEQPRPP (DYVPMEQPRPP; not fully specified; listed as Mus musculus) [Alkbh6.4] | 2.96 |  | 
KLQRQYRSPRL [Mast2] |  |  | IC50 [3]: 10.1 µM
NYLLSLVAVML [Serinc1] |  | 20.9 | 
VFPGLMEL [Atxn10.2, VFPGLME(l/R)] |  |  | IC50 [3]: > 70 µM
D(y/D)VPMEQPRP (DYVPMEQPRP; not fully specified; listed as Mus musculus) [Alkbh6.3] |  |  | IC50 [3]: > 70 µM
HYLSSILRL [Pacs2, HYLS(s/A)ILRL] |  | 1.27 | 
HYINMILPI [Ufsp2, HYINM(i/S)LPI] |  |  | IC50 [2]: < 0.0001 µM
SYMLQALCI [Tnpo3, (sy/LD)MLQALCI] |  | 0.146 | 
PYLTQYAI [Dhx8.2, P(y/D)LTQYAI] | > 70 |  | IC50 [3]: > 70 µM
CC[C@H](C)[C@H](N)C(=O)N[C@@H](Cc1ccc(O)cc1)C(=O)NCC(=O)N[C@H](C(=O)N[C@H](C(=O)N[C@@H](C)C(=O)N[C@@H](CCCNC(=N)N)C(=O)N[C@@H](CC(N)=O)C(=O)N[C@@H](CCCNC(=N)N)C(=O)N[C@@H](C)C(=O)N[C@@H](CC(C)C)C(=O)O)C(C)C)C(C)C [Dis312.1, I(y/D)GVVARNRAL] |  | > 70 | 
AYAKQFAA [Ube4a.2, A(y/D)AKQFAA] |  | > 70 | 
DYVPMEQPR [Alkbh6.2, D(y/D)VPMEQPR] | 51.2 |  | IC50 [3]: > 70 µM
SWSSRRSLLG(l/R) (SWSSRRSLLGL; not fully specified; listed as Mus musculus) [9430016H08Rik] | > 70 |  | IC50 [3]: > 70 µM

The next lines start with results.

IC50 [1] [µM] | Compound | IC50 [µM] | further results
1.65 | P(y/D)LTQYAIIML (PYLTQYAIIML; not fully specified; listed as Mus musculus) [Dhx8.1] |  | 
> 70 | EYLDLQTQ [Zfp236.1, E(y/D)LDLQTQ] |  | 
> 70 | TTTPGGRPPYL [Sipa113] |  | 
> 70 | AYRLEGDRS [Dcaf6, A(y/D)RLEGDRS] |  | IC50 [3]: > 70 µM
6.26 | P(y/D)LTQYAIIM (PYLTQYAIIM; not fully specified; listed as Mus musculus) [Dhx8.4] |  | 
> 70 | LYDVDAAF [Cpsf2, L(y/D)DVDAAF] |  | 
5.11 | SEDKIKAIL [Rangap1] |  | 
> 70 | LYEAGVTDE [Tpst2.2, L(y/D)EAGVTDE] |  | 
1.42 | PYLTQYAII [Dhx8.3, P(y/D)LTQYAII] |  | 
> 70 | AYILAALTKLQ [Zfp236.2, E(y/D)LDLQTQG] |  | IC50 [3]: 10 µM
> 70 | LKSEEKTL [Stau1.1, LKSEEKT(l/P)] |  | 
> 70 | ALKSEEKTL [Stau1.4] |  | 
7.05 | QVFPGLME(l/R) (QVFPGLMEL; not fully specified; printed as QVFPGLME(l/R); listed as Mus musculus) [Atxn10.1] |  | IC50 [3]: > 70 µM
> 70 | KPALKSEEKTL [Stau1.2] |  | 
0.012 | LYYERIHKKML [Ugdh] |  | 
4.54 | ELQGLLEDE(l/R) (ELQGLLEDEL; not fully specified; printed as ELQGLLEDE(l/R); listed as Mus musculus) [Ccdc136] |  | IC50 [3]: > 70 µM
> 70 | AYAKQFAAI [Ube4a.1, A(y/D)AKQFAAI] |  | 
